What is called melting point is the temperature of the solid-liquid transition.

In turn, `CCOc1ccc2[nH]c(=O)n(C(C)(C)COC)c2c1` gave a melting point of 149 °C.

In the case of `CNC(=O)c1cccc(C(C(N)=O)c2c[nH]c3ccccc23)c1` (stereo not drawn), the melting point fell in the range of 168 to 169 °C. The same measure for `COc1cc(CN2C(=N)c3cc(-c4ccc(F)cc4F)ccc3S2(=O)=O)ccn1`: 173 °C. The same measure for `O=C(NO)[C@H](CNS(=O)(=O)c1ccc(OCCc2ccccc2)cc1)N1CCOCC1`: 77 °C; for `O=C(c1ccco1)c1cnn2c(-c3cccc(N4CCCCC4=O)c3)ccnc12`: 159 to 160 °C; for `Cc1cc(-c2nc3c(F)c(F)ccc3s2)ccc1N`: 204 to 205 °C.

`Cc1nn(-c2cncc(F)c2)cc1[N+](=O)[O-]` displayed a melting point of 90 to 92 °C. `OCc1csc(NC2CCCCC2)n1` returned a melting point of 118 to 120 °C. The same measure for `COC(=O)c1ccc(C#CC(=O)c2ccc3c(c2)CCCC3(C)C)cc1O`: 89 to 90 °C; for `N#Cc1nn(-c2c(Cl)cc(C(F)(F)F)cc2Cl)c(N)c1-c1cccc([N+](=O)[O-])c1`: 212 to 214 °C. The same measure for `CCCCOCCCCCCCCCCC(=O)O`: 29 to 30.5 °C; for `O=C(O)CCCCCc1ccc2ccccc2n1`: 105 to 108 °C. In the case of `O=c1[nH]cnc2ccc(-c3cccnc3)cc12` it was 240 to 246 °C; in that of `COCC1(C)CC(n2ccccc2=O)c2cc(C(N)=O)ccc2O1` (stereo not drawn), 177 to 179 °C. `C=C1C[C@@H]2C(=O)OC(=O)[C@@H]2C1`: the melting point fell in the range of 50 to 51 °C. In the case of `CNc1nc(CO)ccc1C` it was 87 °C.

Consider `COC(=O)c1nc(Br)ccc1O`, for which the melting point lay in the range of 115 to 117 °C. `CCN(C)C(=O)NC(=O)Nc1ccccc1` showed a melting point of 157 to 159 °C. Turning to `COC1C(O)C(CO)OC1n1cnc2c(N)nc(N)nc21` (stereo not drawn), the melting point was in the range of 133 to 135 °C. `C[C@@H](N1CCN(c2ccc(OC(F)(F)C(F)F)cc2)C1=O)[C@@]1(c2ccccc2F)CO1`: the melting point lay in the range of 148 to 149 °C. For the compound `C=C(C)c1ccc(CNC(=O)N2CCN(c3ncnc4cc(OC)c(OC)cc34)CC2)cc1`, the melting point lay within 123 to 124 °C. In the case of `O=C(O)CCc1nn(-c2ccc(F)cc2)cc1-c1ccc(Cl)cc1` it was 131 °C.

As for `CCOC1CC2(C)C(CCC3C4CCC(=O)C4(C)CC(=O)C32)CC1O` (stereo not drawn), the melting point is 164 to 167 °C. The same measure for `CCOC(=O)C1=C(N)OC(C)=C(C(=O)OC)C1c1cc([N+](=O)[O-])ccc1Cl` (stereo not drawn): 159 °C. The same measure for `CNC(=O)C(=NOC)c1ccccc1COc1ccc(Cl)c(C(=O)OC(C)(C)C)n1`: 103 to 108 °C; for `Cc1cc(SC2=C(O)CC(CCc3ccc(O)cc3)(c3ccccc3)OC2=O)c(C(C)(C)C)cc1CO` (stereo not drawn): 199 to 201 °C. In the case of `O=C(O)c1ccccc1OCCN1CCC(c2cn(CCC3COCCO3)c3ccccc23)CC1` (stereo not drawn) it was 139 to 140 °C; in that of `Cc1ccccc1-c1ccc(C(=O)N2Cc3ccc(C(=O)NCCc4cccc(Cl)c4)n3Cc3ccccc32)cc1C`, 174 to 176 °C.

`COC(=O)c1cc2ccccc2n1-c1ccccn1` gave a melting point of 158 to 159 °C.

As for `COC(=O)c1cc2c(Cl)cccc2s1`, the melting point fell in the range of 84 to 86 °C. Consider `CCCCCCCCCCCCOc1ccc(O)c(C(=O)NNC(=O)c2ccccc2O)c1`, for which the melting point came to 244 °C. In the case of `COc1ccc(-n2cc(C(F)(F)F)nc2-c2ccc(OC)nc2)cc1` it was 90 to 92 °C; in that of `C[C@@H]([C@H]1CO1)[C@](O)(Cn1cncn1)c1ccc(F)cc1F` (relative stereo), 160 to 180 °C. In the case of `CN(C)CCOc1ccc2[nH]c(C(=O)N3CC(CCl)c4c3cc([N+](=O)[O-])c3cc(S(C)(=O)=O)ccc43)cc2c1` (stereo not drawn) it was 250 to 252 °C. In the case of `Cc1ccc(Cl)c(N2C(=O)C(=NO)c3ccccc32)c1Cl` it was 190 to 191 °C; in that of `CCOP(=O)(OCC)C(C)CNC(=O)CCl` (stereo not drawn), 93 to 95 °C.

In the case of `CC12CC(O)CC1C1CCc3cc(O)ccc3C1C(c1ccccc1)C2` (stereo not drawn), the melting point was in the range of 241 to 247 °C. Consider `O=C(NCCN1CC=C(n2c(=O)[nH]c3ccccc32)CC1)c1ccc(F)cc1`, for which the melting point was found to be 203 °C. The same measure for `COc1nc(C)nc(NC(=O)NS(=O)(=O)c2csc3ccccc23)n1`: 187 to 188 °C; for `CCn1c2cccc(C=O)c2c2c3ccccc3ccc21`: 90.5 to 91.5 °C. The same measure for `COc1ccc(C2=NN(C3CCN(C(=O)c4c(Cl)cc(Cl)cc4Cl)CC3)C(=O)CC2)cc1OC`: 156 to 159 °C; for `O=C(O)CCc1c[nH]c2c(C(=O)c3ccccc3)cccc12`: 166 °C. In turn, `CS(=O)(=O)c1nc2c([nH]1)N(Cc1ccc(Cl)cc1)C1NCCN1C2=O` (stereo not drawn) registered a melting point of 282 to 284 °C. In turn, `Nc1cn2cc(Sc3ccccc3)ccc2n1` gave a melting point of 110 to 112 °C.

`NC(=O)c1ccc2c(c1)nc(-c1ccc(OCc3ccccc3)cc1)n2C1CCCC1` yielded a melting point of 232 to 233 °C. On to `O=c1nc(-c2ccccc2)cnn1-c1cc(Cl)cc(Cl)c1`, for which the melting point is 160 to 161 °C. The same measure for `CCOc1ncc(C(C)=O)cc1C(=O)Nc1c(C(N)=O)nn(C2CCN(C(=O)OC(C)(C)C)CC2)c1CC`: 197 to 202 °C; for `CCc1nc2c(cnn2CC)c(NC2CCOCC2)c1CNC(=O)c1cc(C)cc(C(=O)NCc2cccc(-c3cccc(CC4CCNCC4)c3)c2)c1`: 130 to 132 °C. The same measure for `C=CCOc1ccc(C)c2c1C(C)(C)C(=O)N2Cc1ccccc1`: 107 to 108 °C. As for `COc1ccc(C(=O)Nc2c(Cl)cncc2Cl)c2c1OCC2CC(=O)OCc1ccccc1` (stereo not drawn), the melting point was in the range of 198 to 205 °C. In the case of `CCOC(=O)Cc1sc(C(C)(C)c2c(Cl)cc(-n3ncc(=O)[nH]c3=O)cc2Cl)nc1-c1ccccc1` it was 148 °C; in that of `Cc1ccc(S(=O)(=O)N(C)c2ccc(Cl)cc2C(N)=S)cc1`, 180 to 182 °C. The same measure for `CC(=O)NC[C@H]1CN(c2ccc(N3CCC(n4cc(C=O)nn4)CC3)c(F)c2)C(=O)O1`: 168 to 170 °C; for `O=[N+]([O-])c1ccc(CN2CCC(c3cc(-c4ccc(Cl)cc4)[nH]n3)CC2)cc1`: 187 to 190 °C; for `CCOc1ncc(Br)cc1C(=O)O`: 122 to 124 °C.

Consider `Cc1nc(N)sc1S(=O)(=O)NC(C)(C)CO`, for which the melting point was 146 °C.

On to `C=CCOc1ccc(OC[C@H]2CC[C@H](C=C)CC2)c(F)c1F`, for which the melting point is 27.3 °C. In the case of `COc1ccc(C=CC(=O)CCCCc2ccccc2)cc1O` it was 70 to 75 °C; in that of `Cn1c(NCCOS(C)(=O)=O)cc(=O)n(C)c1=O`, 169 to 170 °C; in that of `CCCc1ccnc2c(=O)[nH]c(-c3cc(S(=O)(=O)N4CCC(C(=O)O)CC4)ccc3OCC)nc12`, 262 to 264 °C. For the compound `Cc1ccccc1Sc1c(O)cc(-c2ccccc2)oc1=O`, the melting point was 210 to 211 °C. Compound `CC(=O)Nc1ccccc1C(=O)NCCN1CCC(Nc2nc3ccccc3n2Cc2ccc(F)cc2)CC1` gave a melting point of 171 °C. `CN=Cc1ccc2cc(OC)ccc2c1` showed a melting point of 109 to 110 °C. The same measure for `O=C(NCCSCc1ccc(Cl)cc1)c1c(Cl)cccc1Cl`: 104 to 106 °C; for `O=C(c1ccc([N+](=O)[O-])cc1)N1Cc2cccn2-c2ccccc21`: 174 to 178 °C; for `NC(=O)c1cn(C(CO)CCc2ccccc2)cn1` (stereo not drawn): 127 to 130 °C. In the case of `CC1(C)CC(=NO)c2cc(-c3ccc(Br)cc3)ccc2O1`, the melting point was 166 to 170 °C. The same measure for `CC(=NOCCO)c1cn(C)c(-c2ccccc2)n1`: 133 to 135 °C; for `CCOP(=O)(/C=C/c1nc(-c2ccccc2)oc1COc1ccc(OCc2nc(-c3ccccc3)oc2C)cc1)OCC`: 124 to 125 °C. `CS(=O)(=O)n1c(C#N)nc2cc3c(cc21)OC(F)(F)C(F)(F)O3` registered a melting point of 180 to 183 °C. In the case of `COc1ccccc1C(N)=CC#N`, the melting point lay in the range of 74 to 75 °C. In the case of `O=C1NC(=O)C(N(Cc2ccc(Br)cc2)c2ccc(CCNCC(O)COc3ccc(OCc4ccccc4)cc3)cc2)S1` (stereo not drawn) it was 50 to 52 °C; in that of `Nc1cc(C(=O)Nc2ccc(F)cc2)ccc1OC(F)(F)F`, 139 to 140 °C; in that of `CCN(C(=O)n1nnc2cc(C)ccc21)c1ccccc1`, 42 to 43 °C. The same measure for `CC(C)n1cnc2c(NCc3ccc(O)cc3O)nc(NC[C@@H](C)O)nc21`: 189 to 191 °C; for `CN1CCN(c2ncnc3oc(-c4ccccc4)c(-c4ccc(F)cc4)c23)CC1`: 143 to 144 °C; for `COc1cc(OC)c(NC(=O)[C@H]2[C@H](c3ccccc3)C2(C)C)cc1Cl` (relative stereo): 160 to 162 °C.

`COc1cc(OC)c(-c2ccc(O)c(C34CC5CC(CC(C5)C3)C4)c2)cc1C=C1SC(C2CCNC2)=NC1=O` (stereo not drawn): the melting point is 343 to 345 °C. For the compound `CCOC(=O)N(c1cccc(C(F)(F)F)c1)c1ccccc1-n1nc(C(=O)O)nc1CCl`, the melting point is 100 to 108 °C. Regarding `COc1cccc(CNC(=O)c2nc3ccc(OCC(=O)c4ccccc4)cc3c(=O)[nH]2)c1`, the melting point fell in the range of 168 to 169 °C.

On to `CCOC(=O)C1=C(COCCN)NC(C)=C(C(=O)OC)C1c1cccc(C(F)(F)F)c1Cl` (stereo not drawn), for which the melting point came to 122 °C. `O=C1c2cccc(SCCCCCCO)c2C(=O)c2cccc(SCCCCCCO)c21` displayed a melting point of 195 to 196 °C. In the case of `O=C(CCl)Nc1nc(C(Cl)(Cl)Cl)ns1` it was 146 °C. `Nc1cc(=O)n(Cc2ccc(Cl)c(Br)c2)[nH]1` returned a melting point of 171 to 172 °C. `CNC(=O)NS(=O)(=O)c1ccccc1OC(Cl)=CCl`: the melting point was 225 to 226 °C.

`CC(F)(F)c1cccc(C[C@H](N)[C@H](O)c2ccc(F)cc2)c1` (racemic): the melting point fell in the range of 101 to 102 °C.

Take `O=C1Nc2ccc(C3CC4CCC3C4)cc2C12OCCO2` (stereo not drawn): the melting point was in the range of 159 to 161 °C. The same measure for `CN(C)CCc1ccc(O)c2nc[nH]c12`: 245 to 252 °C.

Values taken from a melting point compilation (Tetko et al.; mined from patent text by program, amines drawn as free bases though some values may be those of a salt).
